Laboratory results from paper PMC7717565, “Structure of the Lifeact–F-actin complex” (PLoS Biology, 2020).
Where no end group is shown, it is not given here.

How the values were obtained:
F-actin [1] = conditions: ref [5],[6]; cited from earlier work
Description: Phalloidin and jasplakinolide are cyclic peptides derived from the death cap mushroom Amanita phalloides and marine sponge Jaspis johnstoni, respectively. They bind specifically to filamentous actin (F-actin), and when fused to a fluorescent probe, their derivatives allow visualization of the cell cytoskeleton by fluorescence microscopy. […] Recent electron cryo-microscopy (cryo-EM) studies from our group and others have uncovered h ...

[2] = system: F-actin-rich patch in yeast cells; format: cell-based, Saccharomyces cerevisiae; conditions: Fig 3E
[3] = system: HEK 293T cells intoxicated with PTC3; assay: Intoxication competition assay with PTC3 in HEK 293T cells (cell area); format: cell-based, human; conditions: 300 pM PTC3, 5 h, mCherry fusion expressed
[4] = system: F-actin in yeast cells, WT actin; format: cell-based, Saccharomyces cerevisiae; conditions: for weighted colocalization coefficient of phalloidin with Lifeact–mCherry: native ABP140 promoter, fixed cells, ActinGreen 488, Fig 2B, mean of 15 cells from 2 independent experiments
[5] = system: F-actin-rich patch in yeast cells; format: cell-based, Saccharomyces cerevisiae; conditions: Fig 3D
F-actin [6] = molecular target: F-actin (Oryctolagus cuniculus, UniProt P68135); assay: Cosedimentation of Lifeact–mCherry with F-actin; format: binding, Rabbit (skeletal muscle α-actin); design: Bmax Value: unit not given here
[7] = system: F-actin in yeast cells, actin D25Y/D222G; format: cell-based, Saccharomyces cerevisiae; conditions: confocal microscopy, Fig 2C, endogenous actin replaced with D25Y variant
[8] = system: F-actin in yeast cells, actin L349M; format: cell-based, Saccharomyces cerevisiae; conditions: confocal microscopy, Fig 2C, endogenous actin replaced with L349M variant
TccC3HVR = assay: ADP-ribosylation of actin by TccC3HVR; format: biochemical, Photorhabdus luminescens; conditions: for ADP-ribosylation level of actin (0 uM Lifeact = 1): Lifeact 100 uM, pH 8, 10 min 37°C
[9] = system: motor domain of human NM2C binding to F-actin; assay: Competition cosedimentation of F-actin with NM2C motor domain; conditions: for fraction of myosin cosedimented with F-actin: Lifeact 100 uM, F-actin 0.2 μM, NM2C 0.2 μM, pH 8
Description: The motor domain of nonmuscular myosin-2C (MYH14, isoform 2 from Homo sapiens) consisting of amino acids 1–799 was purified as described previously [32]
Then, actin was polymerized by incubation in F-buffer (120 mM KCl, 20 mM Tris pH 8, 2 mM MgCl2, 1 mM DTT, and 1 mM ATP) for 2 hours at room temperature or overnight at 4°C. For the cosedimentation experiments with myosin and tropomyosin, a 2-fold molar excess of phalloidin was added after the polymerization. Then, the actin filaments were pelleted using a TLA-55 rotor at 150,000 g for 30 minutes and resuspended in the following buffers: F-buffer was used for cosedimentations with tropomyosin or Lifeact–mCherry fusion proteins; 20 mM HEPES pH 6.5, 50 mM KCl, and 2 mM MgCl2 was used for cosedimentations with cofilin; and 120 mM KCl, 20 mM Tris pH 8, 2 mM MgCl2, and 1 mM DTT was used for cosedimentations with myosin.
(§1) For the competition assays, Lifeact peptide was added to the mixture at the specified concentrations. […] The Kd values were calculated as previously described using GraphPad Prism software (GraphPad Software, USA) [34].
The error bars correspond to standard deviations of 3 independent experiments.

[10] = system: human cofilin-1 binding to F-actin; assay: Competition cosedimentation of F-actin with cofilin-1; conditions: Lifeact 100 uM, F-actin 4 μM, cofilin-1 4 μM, pH 6.5
Description: (§2) An aliquot of freshly thawed G-actin was centrifuged at 150,000 g using a TLA-55 rotor for 30 minutes at 4°C to remove possible aggregates. Then, actin was polymerized by incubation in F-buffer (120 mM KCl, 20 mM Tris pH 8, 2 mM MgCl2, 1 mM DTT, and 1 mM ATP) for 2 hours at room temperature or overnight at 4°C. For the cosedimentation experiments with myosin and tropomyosin, a 2-fold molar excess of phalloidin was added after the polymerization. Then, the actin filaments were pelleted using a TLA-55 rotor at 150,000 g for 30 minutes and resuspended in the following buffers: F-buffer was used for cosedimentations with tropomyosin or Lifeact–mCherry fusion proteins; 20 mM HEPES pH 6.5, 50 mM KCl, and 2 mM MgCl2 was used for cosedimentations with cofilin; and 120 mM KCl, 20 mM Tris pH 8, 2 mM MgCl2, and 1 mM DTT was used for cosedimentations with myosin.
as §1
(§3) Representative gels are shown. […] The error bars correspond to standard deviations of 3 independent experiments.

[11] = system: ExoY-MBP binding to F-actin; assay: Competition cosedimentation of F-actin with ExoY-MBP; design: species or system Pseudomonas aeruginosa ExoY; rabbit actin; conditions: for fraction of ExoY cosedimented with F-actin: Lifeact 300 uM, F-actin 1 μM, ExoY-MBP 1 μM
[12] = system: human tropomyosin alpha-1 binding to F-actin; assay: Competition cosedimentation of F-actin with tropomyosin; conditions: Lifeact 100 uM, F-actin 3 μM, tropomyosin 3 μM
Description: as §2, §1, §3

Which “effect on F-actin” value (F-actin [1]) does the source give for jasplakinolide here?
Its value is “strongly stabilize F-actin”.

With Phalloidin as the substance, how does the “effect on F-actin” value (F-actin [1]) read?
The value was “strongly stabilize F-actin”.

Which “change of average patch to background signal ratio vs WT” value [2] does the source give for “E17K: Lifeact E17K variant fused to mCherry (MGVADLIKKFESISKEK; also: fused to mCherry, His tag, end not given here)” here?
Its value is “insignificant increase”.

And the “effect on PTC3/TccC3HVR toxicity (cytoskeletal collapse, shrinkage)” value [3]?
Its value is “significantly reduced”.

What about the “staining of actin-rich structures compared with WT” value ([4]; confocal microscopy, Fig 2A) of the same substance?
The value was “stained actin-rich structures in a similar way as WT Lifeact”.

And the “weighted colocalization coefficient of phalloidin with Lifeact–mCherry” value [4]?
Its value is 0.8293.

And the “change of average Lifeact–mCherry to phalloidin signal ratio vs WT” value [5]?
Its value is “insignificant increase”.

What about the “Bmax Value” (F-actin [6]; 3 μM Lifeact–mCherry, F-buffer pH 8, fit value, Std dev in next column) of the same substance?
Its value is 0.9222.

And the Kd (F-actin [6]; 3 μM Lifeact–mCherry, F-buffer pH 8, full-precision fit value, Std dev in next column, unit as printed in Fig 3C)?
Its Kd is 8.08 µM.

With “WT Lifeact–mCherry: wild-type Lifeact fused to mCherry [reference compound]” as the substance, how does the “actin-rich structures stained by Lifeact–mCherry” value [7] read?
The value was “absent”.

What about the “actin-rich structures stained by Lifeact–mCherry” value [8] of the same substance?
The value was “absent”.

What about the “effect on PTC3/TccC3HVR toxicity (cytoskeletal collapse, shrinkage)” value [3] of the same substance?
Its value is “significantly reduced”.

What about the “actin-rich structures (patches, cables, contractile rings) stained by Lifeact–mCherry” value ([4]; confocal microscopy, Fig 2A) of the same substance?
The value was “typical actin-rich assemblies such as patches, cables, and contractile rings”.

What about the “weighted colocalization coefficient of phalloidin with Lifeact–mCherry” value [4] of the same substance?
The value was 0.9009.

And the “factor of decrease of the level of ADP ribosylation” value (TccC3HVR; 3 μM)?
Its value is 2.

Which “effect on myosin binding to F-actin” value ([9]; Fig 4B, 4C) does the source give for “F10A Lifeact: Lifeact F10A mutant peptide, which only binds weakly to F-actin (MGVADLIKKAESISKEE)” here?
Its value is “nor could F10A Lifeact compete with cofilin-1 or NM2C”.

And the “fraction of myosin cosedimented with F-actin” value ([9]; 1st repeat)?
The value was 0.8484.

And the “fraction of myosin cosedimented with F-actin” value ([9]; 2nd repeat)?
Its value is 0.9522.

And the “fraction of myosin cosedimented with F-actin” value ([9]; 3rd repeat)?
Its value is 0.8926.

And the “fraction of myosin cosedimented with F-actin” value ([9]; mean of 3)?
The value was 0.8977.

And the “effect on the level of ADP-ribosylation” value (TccC3HVR; 100 μM, control reaction)?
The value was “did not decrease the level of ADP-ribosylation at all”.

And the “ADP-ribosylation level of actin (0 uM Lifeact = 1)” value (“ADP-ribosylation level of actin” for short) (TccC3HVR; 1st repeat)?
Its value is 1.142.

And the “ADP-ribosylation level of actin” value (TccC3HVR; 2nd repeat)?
Its value is 1.587.

And the “ADP-ribosylation level of actin” value (TccC3HVR; 3rd repeat)?
Its value is 0.8227.

And the “ADP-ribosylation level of actin” value (TccC3HVR; mean of 3)?
Its value is 1.184.

And the “fraction of cofilin cosedimented with F-actin” value ([10]; 1st repeat)?
The value was 0.5246.

What about the “fraction of cofilin cosedimented with F-actin” value ([10]; 2nd repeat) of the same substance?
Its value is 0.4576.

And the “fraction of cofilin cosedimented with F-actin” value ([10]; 3rd repeat)?
The value was 0.5496.

What about the “fraction of cofilin cosedimented with F-actin” value ([10]; mean of 3) of the same substance?
Its value is 0.5106.

What about the “effect on ExoY binding to F-actin” value ([11]; Fig 5A, 5B) of the same substance?
Its value is “did not impair formation of the ExoY-F-actin complex”.

And the “fraction of ExoY cosedimented with F-actin” value (from here on “fraction of ExoY cosedimented”) ([11]; 1st repeat)?
Its value is 0.8832.

What about the “fraction of ExoY cosedimented” value ([11]; 2nd repeat) of the same substance?
The value was 0.8982.

What about the “fraction of ExoY cosedimented” value ([11]; 3rd repeat) of the same substance?
Its value is 0.9357.

And the “fraction of ExoY cosedimented” value ([11]; mean of 3)?
The value was 0.9057.

What about the “fraction of tropomyosin cosedimented with F-actin” value ([12]; 1st repeat) of the same substance?
The value was 0.4801.

And the “fraction of tropomyosin cosedimented with F-actin” value ([12]; 2nd repeat)?
Its value is 0.5601.

What about the “fraction of tropomyosin cosedimented with F-actin” value ([12]; 3rd repeat) of the same substance?
The value was 0.4901.

What about the “fraction of tropomyosin cosedimented with F-actin” value ([12]; mean of 3) of the same substance?
The value was 0.5101.

And the “binding to F-actin” value (F-actin [6]; in words, no value)?
The value was “only binds weakly to F-actin”.
